Holding throughout (format): in vivo
Assay [1] relates to Plasmopara vilicola (the causal agent of grape downy mildew). Kind of assay: Test A: grape downy mildew, test suspension sprayed on grape seedlings after inoculation, visual disease rating. An outline of the steps:
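Compounds dissolved in acetone (3% of final volume), suspended in 50/50 acetone/water with 250 ppm Trem 014; 200 ppm to run-off equals 500 g/ha. Seedlings inoculated, held saturated at 20 °C 24 h, then sprayed; 5 days at 20 °C, 24 h saturated, then visual rating, 0–100% control versus untreated.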

The test system of assay [2] is Phytophthora infestans (the causal agent of tomato late blight). In words: whole plant or invertebrate.
The test system is the same in assay [3]. In words: whole plant or invertebrate. The source holds these as a separate data set.
Setting [4] is: compounds without asterisk (application rate not given), 100 = 100% disease control, 0 = no control relative to the controls.

SMILES strings stand for the structures.

On to `Cc1cc(C(F)(F)F)nn1CC(=O)N1CCC(c2nc(-c3cccc(Oc4ccccc4)c3)cs2)CC1` [Compound 75], for which the “Percent Disease Control, Test A” value in assay [1] (setting [4]) is 72%. Also, in assay [2] (setting [4]), the “Percent Disease Control, Test B” value was determined as 24%. Besides, the “Percent Disease Control, Test C” value in assay [3] (setting [4]) was found to be 0%.
Consider `Cc1cc(C(F)(F)F)nn1CC(=O)N1CCC(c2nc(-c3ccn(-c4ccccc4)n3)cs2)CC1` [Compound 76], for which the “Percent Disease Control, Test A” value in assay [1] (setting [4]) amounted to 72%. Besides, the “Percent Disease Control, Test B” value in assay [2] (setting [4]) is reported as 92%. For the same compound, in assay [3] (setting [4]), the “Percent Disease Control, Test C” value is recorded as 67%.
In the same order, the values of `Cc1ccc(-n2cc(-c3csc(C4CCN(C(=O)Cn5nc(C(F)(F)F)cc5C)CC4)n3)nn2)cc1` [Compound 77] are 87%, 100% and 99%.
Turning to `Cc1cc(C(F)(F)F)nn1CC(=O)N1CCC(c2nc(-c3ccnn3-c3ccccc3)cs2)CC1` [Compound 78], the “Percent Disease Control, Test A” value in assay [1] (setting [4]) was determined as 0%. The “Percent Disease Control, Test B” value in assay [2] (setting [4]) is on record as 0%. Also, in assay [3] (setting [4]), the “Percent Disease Control, Test C” value worked out at 0%.
Turning to `Cc1cc(C(F)(F)F)nn1CC(=O)N1CCC(c2nc(C3=NO[C@@H](c4ccccc4F)C3)cs2)CC1` [Compound 79], in assay [1] (setting [4]), the “Percent Disease Control, Test A” value is 100%. The “Percent Disease Control, Test B” value in assay [2] (setting [4]) came out at 100%. Also, in assay [3] (setting [4]), the “Percent Disease Control, Test C” value is 66%.
For the compound `COC1ON=C(c2csc(C3CCN(C(=O)Cn4nc(C(F)(F)F)cc4C)CC3)n2)CC1c1ccccc1` (stereo not drawn) [Compound 81], the “Percent Disease Control, Test A” value in assay [1] (setting [4]) worked out at 93%. The “Percent Disease Control, Test B” value in assay [2] (setting [4]) is reported as 92%. In addition, the “Percent Disease Control, Test C” value in assay [3] (setting [4]) was 77%.
Regarding `Cc1cc(C(F)(F)F)nn1CC(=O)N1CCC(c2nc(-c3nn(-c4ccccc4)c(=O)[nH]3)cs2)CC1` [Compound 82], the “Percent Disease Control, Test A” value in assay [1] (setting [4]) stood at 0%. Also, in assay [2] (setting [4]), the “Percent Disease Control, Test B” value was found to be 88%. Also, the “Percent Disease Control, Test C” value in assay [3] (setting [4]) stood at 26%.
For `Cc1cc(C(F)(F)F)nn1CC(=O)N1CCC(c2nc(-c3ccc(-c4ccccc4)o3)cs2)CC1` [Compound 83], in that order: 46%, 92% and 0%.
Take `Cc1cc(C(F)(F)F)nn1CC(=O)N1CCC(c2nc(-c3csc(-c4ccccc4)n3)cs2)CC1` [Compound 84]: the “Percent Disease Control, Test A” value in assay [1] (setting [4]) was determined as 67%. The “Percent Disease Control, Test B” value in assay [2] (setting [4]) was 33%. Besides, the “Percent Disease Control, Test C” value in assay [3] (setting [4]) is on record as 0%.
In the case of `Cc1cc(C(F)(F)F)nn1CC(=O)N1CCC(c2nc(-c3ccc(-c4ccccc4)s3)cs2)CC1` [Compound 85], the “Percent Disease Control, Test A” value in assay [1] (setting [4]) is 85%. Also, in assay [2] (setting [4]), the “Percent Disease Control, Test B” value is given as 70%. Besides, the “Percent Disease Control, Test C” value in assay [3] (setting [4]) was 0%.
`Cc1cc(C(F)(F)F)nn1CC(=O)N1CCC(c2nc(-c3cc(-c4ccc(Cl)cc4Cl)no3)cs2)CC1` [Compound 86]: the “Percent Disease Control, Test A” value in assay [1] (setting [4]) worked out at 83%. Further, the “Percent Disease Control, Test B” value in assay [2] (setting [4]) amounted to 79%. Further, the “Percent Disease Control, Test C” value in assay [3] (setting [4]) was found to be 14%.
For `Cc1cc(C(F)(F)F)nn1CC(=O)N1CCC(c2nc(-c3cc(-c4ccc(Cl)c(Cl)c4)no3)cs2)CC1` [Compound 87], the “Percent Disease Control, Test A” value in assay [1] (setting [4]) turned out to be 76%. The “Percent Disease Control, Test B” value in assay [2] (setting [4]) was determined as 44%. In addition, the “Percent Disease Control, Test C” value in assay [3] (setting [4]) is 0%.
As for `Cc1cc(C(F)(F)F)nn1CC(=O)N1CCC(c2nc(C3=NOC(c4ccc5ccccc5c4)C3)cs2)CC1` (stereo not drawn) [Compound 88], the “Percent Disease Control, Test A” value in assay [1] (* tested at 40 ppm) was 99%. In addition, in assay [2] (* tested at 40 ppm), the “Percent Disease Control, Test B” value turned out to be 100%. Besides, in assay [3] (* tested at 40 ppm), the “Percent Disease Control, Test C” value stood at 99%.
On to `Cc1cc(C(F)(F)F)nn1CC(=O)N1CCC(c2nc(C3=NOC(c4ccc(C(C)(C)C)cc4)C3)cs2)CC1` (stereo not drawn) [Compound 91], for which the “Percent Disease Control, Test A” value in assay [1] (* tested at 40 ppm) is recorded as 99%. In addition, the “Percent Disease Control, Test B” value in assay [2] (* tested at 40 ppm) turned out to be 100%. The “Percent Disease Control, Test C” value in assay [3] (* tested at 40 ppm) came to 91%.
With `Cc1cc(C(F)(F)F)nn1CC(=O)N1CCC(c2nc(C3=NCC(c4ccccc4)N3)cs2)CC1` (stereo not drawn) [Compound 92], in assay [1] (* tested at 40 ppm), the “Percent Disease Control, Test A” value was found to be 13%. For the same compound, the “Percent Disease Control, Test B” value in assay [2] (* tested at 40 ppm) is 33%. Besides, the “Percent Disease Control, Test C” value in assay [3] (* tested at 40 ppm) is on record as 9%.
